What was measured:
human CSNK1D = target: T1, human CSNK1D (Homo sapiens, UniProt P48730); assay: Whole Cell nBRET CSNK1D Binding Assay; settings: living CHO cells stably expressing human CSNK1D tagged with nanoluciferase; NanoBret tracer 130 nM; 2 hours at 37 C
T1 construct: expressed in transfected cells

[1] = target: T2, human recombinant GST cleaved CSNK1D (Homo sapiens, UniProt P48730); assay: Purified Enzyme Assay (ADP-Glo CSNK1D Kinase Assay); assay type: biochemical; settings: 2 nM CSNK1D; peptide substrate 150 μM; ATP 20 μM; 45 minutes at room temperature
T2 construct: GST (cleaved yes); purchased University of Dundee clone DU 19064
T2 sequence (P48730 whole entry): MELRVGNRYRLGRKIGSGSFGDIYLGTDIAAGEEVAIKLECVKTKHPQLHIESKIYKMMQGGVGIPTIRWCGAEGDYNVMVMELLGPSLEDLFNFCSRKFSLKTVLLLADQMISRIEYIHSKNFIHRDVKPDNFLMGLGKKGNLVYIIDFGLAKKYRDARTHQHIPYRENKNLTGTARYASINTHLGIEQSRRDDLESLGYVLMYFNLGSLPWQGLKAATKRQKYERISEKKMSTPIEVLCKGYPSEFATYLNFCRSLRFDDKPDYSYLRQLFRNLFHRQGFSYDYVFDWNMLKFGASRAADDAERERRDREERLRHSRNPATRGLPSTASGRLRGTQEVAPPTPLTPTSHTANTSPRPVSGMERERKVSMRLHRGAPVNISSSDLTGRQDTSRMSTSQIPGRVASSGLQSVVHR
How it was run: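 GST-cleaved human recombinant CSNK1D phosphorylates peptide PLSRTL-pS-VASLPGL with ATP; compounds added in dose-response, 45 min at room temperature. ADP formed measured by ADP-Glo luminescence and converted to percent activity.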

T1 sequence (P48730 whole entry): as above

SMILES	IC50 (human CSNK1D)	IC50 [1]
Fc1ccc(-c2nn3c(c2-c2ccnc4[nH]ncc24)OCC2(C3)CC2(F)F)nc1 (single isomer, unassigned) [Example 479, (*R)-2,2-Difluoro-2′-(5-fluoropyridin-2-yl)-3′-1H-pyrazolo[3,4-b]pyridin-4-yl)-5′H,7′H-spiro[cyclopropane-1,6′-pyrazolo[5,1-b][1,3]oxazine]]	1.32 µM	0.032 µM
Fc1ccc(-c2nn3c(c2-c2c(F)cnc4[nH]ncc24)OCC2(C3)CC2(F)F)cc1 (stereo not shown) [Example 471, 2,2-Difluoro-3′-(5-fluoro-1H-pyrazolo[3,4-b]pyridin-4-yl)-2′-(4-fluorophenyl)-5′H,7′H-spiro[cyclopropane-1,6′-pyrazolo[5,1-b][1,3]oxazine]]	0.003 µM	0.002 µM
CC(=O)Nc1cc(-c2c(-c3ccc(F)cc3)nn3c2C[C@H](F)C3)ccn1 [Example 229, N-[4-[(5S)-5-Fluoro-2-(4-fluorophenyl)-5,6-dihydro-4H-pyrrolo[1,2-b]pyrazol-3-yl]-2-pyridyl]acetamide]	0.002 µM	0.001 µM
CC1(CF)CCc2c(-c3cc(F)ncc3F)c(-c3ccc(F)cn3)nn2C1 (racemic) [Example 288, 3-(2,5-Difluoro-4-pyridyl)-6-(fluoromethyl)-2-(5-fluoro-2-pyridyl)-6-methyl-5,7-dihydro-4H-pyrazolo[1,5-a]pyridine]	4.1 µM	0.238 µM
Cc1cc(-c2c(-c3ccc(F)cn3)nn3c2O[C@@H](C)C[C@@H]3C)c2cn[nH]c2n1 (single isomer, unassigned) [Example 209, (5*S,7*S)-2-(5-Fluoro-2-pyridyl)-5,7-dimethyl-3-(6-methyl-1H-pyrazolo[3,4-b]pyridin-4-yl)-6,7-dihydro-5H-pyrazolo[5,1-b][1,3]oxazine]	0.165 µM	0.008 µM
CC1(CF)CCc2c(-c3c(F)cnc4[nH]ncc34)c(-c3ccc(F)cn3)nn2C1 (single isomer, unassigned) [Example 293, (*S)-5-Fluoro-4-[6-(fluoromethyl)-2-(5-fluoro-2-pyridyl)-6-methyl-5,7-dihydro-4H-pyrazolo[1,5-a]pyridin-3-yl]-1H-pyrazolo[3,4-b]pyridine]	0.018 µM	0.002 µM
Cc1cc(-c2c(-c3ccc(F)cn3)nn3c2OC(C)(C)C3)c2cn[nH]c2n1 [Example 368, 6-(5-Fluoro-2-pyridyl)-2,2-dimethyl-7-(6-methyl-1H-pyrazolo[3,4-b]pyridin-4-yl)-3H-pyrazolo[5,1-b]oxazole]	0.055 µM	0.007 µM
C[C@@H]1CCc2c(-c3ccnc4[nH]ncc34)c(-c3ccc(F)cc3)nn21 [Example 16, 4-[(6R)-2-(4-Fluorophenyl)-6-methyl-5,6-dihydro-4H-pyrrolo[1,2-b]pyrazol-3-yl]-1H-pyrazolo[3,4-b]pyridine]	0.051 µM	0.004 µM
Cc1cc(-c2c(-c3ccc(F)cc3)nn3c2[C@@H]2C[C@@H]2C3)c2cn[nH]c2n1 (relative stereo) [Example 276, (3b*R,4a*S)-2-(4-Fluorophenyl)-3-(6-methyl-1H-pyrazolo[3,4-b]pyridin-4-yl)-3b,4,4a,5-tetrahydrocyclopropa[3,4]pyrrolo[1,2-b]pyrazole]	0.006 µM	0.001 µM
Cc1cc(-c2c(-c3ccc(F)cc3)nn3c2[C@@H]2CC[C@H]3C2)c2cn[nH]c2n1 (single isomer, unassigned) [Example 364, (4*R,7*S)-2-(4-Fluorophenyl)-3-(6-methyl-1H-pyrazolo[3,4-b]pyridin-4-yl)-4,5,6,7-tetrahydro-4,7-methanopyrazolo[1,5-a]pyridine]	0.102 µM	0.005 µM
CC1(C)Cn2nc(-c3ccc(F)cn3)c(-c3ccn4nccc4c3)c2O1 [Example 367, 6-(5-Fluoro-2-pyridyl)-2,2-dimethyl-7-pyrazolo[1,5-a]pyridin-5-yl-3H-pyrazolo[5,1-b]oxazole]	0.566 µM	0.041 µM
Cc1nc2[nH]ncc2c(-c2c(-c3ccc(F)cn3)nn3c2CC2(C3)CC2(F)F)c1F (single isomer, unassigned) [Example 263, (*R)-1′.1′-Difluoro-3-(5-fluoro-6-methyl-1H-pyrazolo[3,4-b]pyridin-4-yl)-2-(5-fluoro-2-pyridyl)spiro[4,6-dihydropyrrolo[1,2-b]pyrazole-5,2′-cyclopropane]]	1.46 µM	0.054 µM
CC1(C)COc2c(-c3ccnc4cn[nH]c34)c(-c3ccc(F)cn3)nn2C1 [Example 454, 2-(5-Fluoro-2-pyridyl)-6,6-dimethyl-3-(1H-pyrazolo[4,3-b]pyridin-7-yl)-5,7-dihydropyrazolo[5,1-b][1,3]oxazine]	0.127 µM	0.006 µM
Cc1cc(-c2c(-c3ccc(F)cn3)nn3c2O[C@@H](C)C[C@H]3C)c2cn[nH]c2n1 (single isomer, unassigned) [Example 206, (5*S,7*R)-2-(S-Fluoro-2-pyridyl)-5,7-dimethyl-3-(6-methyl-1H-pyrazolo[3,4-b]pyridin-4-yl)-6,7-dihydro-5H-pyrazolo[5,1-b][1,3]oxazine]	0.249 µM	0.014 µM
Cc1nc(-c2nn3c(c2-c2ccnc4[nH]ncc24)COC(C)(C)C3)ccc1F [Example 164, 2-(5-Fluoro-6-methylpyridin-2-yl)-6,6-dimethyl-3-(1H-pyrazolo[3,4-b]pyridin-4-yl)-6,7-dihydro-4H-pyrazolo[5,1-c][1,4]oxazine]	0.165 µM	0.009 µM
COCC1(F)CCc2c(-c3c(F)c(C)nc4[nH]ncc34)c(-c3ccc(F)cn3)nn2C1 (single isomer, unassigned) [Example 309, (*R)-5-Fluoro-4-[6-fluoro-2-(5-fluoro-2-pyridyl)-6-(methoxymethyl)-5,7-dihydro-4H-pyrazolo[1,5-a]pyridin-3-yl]-6-methyl-1H-pyrazolo[3,4-b]pyridine]	1.32 µM	0.097 µM
[2H]C([2H])([2H])OC([2H])([2H])[C@]1(F)CCc2c(-c3cc(C)nc4[nH]ncc34)c(-c3ccc(F)cn3)nn2C1 (single isomer, unassigned) [Example 312, (*S)-4-[6-[(Methoxy-d3)methyl-d2]-6-fluoro-2-(5-fluoro-2-pyridyl)-5,7-dihydro-4H-pyrazolo[1,5-a]pyridin-3-yl]-6-methyl-1H-pyrazolo[3,4-b]pyridine]	0.039 µM	0.004 µM
Cc1cc(-c2c(-c3ccc(F)cc3)nn3c2CC2(C3)CC2(F)F)c2cn[nH]c2n1 (single isomer, unassigned) [Example 253, (*R)-1′.1′-Difluoro-2-(4-fluorophenyl)-3-(6-methyl-1H-pyrazolo[3,4-b]pyridin-4-yl)spiro[4,6-dihydropyrrolo[1,2-b]pyrazole-5,2′-cyclopropane]]	0.279 µM	0.021 µM
C[C@H]1OCc2c(-c3ccnc4[nH]ncc34)c(-c3ccc(F)cc3)nn2[C@H]1C (relative stereo) [Example 112, (6*R,7*S)-2-(4-Fluorophenyl)-6,7-dimethyl-3-(1H-pyrazolo[3,4-b]pyridin-4-yl)-6,7-dihydro-4H-pyrazolo[5,1-c][1,4]oxazine]	0.054 µM	0.003 µM
CC1(C)Cn2nc(-c3ccc(F)cn3)c(-c3ccnc4cc[nH]c34)c2CO1 [Example 149, 2-(5-Fluoro-2-pyridyl)-6,6-dimethyl-3-(1H-pyrrolo[3,2-b]pyridin-7-yl)-4,7-dihydropyrazolo[5,1-c][1,4]oxazine]	> 10 µM	1.42 µM
